In patent publication US10905123B2, “Herbicidal compounds” (Syngenta Participations AG, priority 2015, dated 2021):

Columns and labels:
Format in all cases: in vivo
Details in all cases: Rate 1000 g/ha; evaluated after 13 days
[1] = test system: Triticum aestivium (TRZAW); assay: B1 pre-emergence herbicidal activity
Experimental: (§1) Seeds of a variety of test species were sown in standard soil in pots: Triticum aestivium (TRZAW), Oryza sativa (ORYSA), Avena fatua (AVEFA), Alopecurus myosuroides (ALOMY), Echinochloa crus-galli (ECHCG), Lolium perenne (LOLPE). After cultivation for one day (pre-emergence) under controlled conditions in a glasshouse (at 24/16° C., day/night; 14 hours light; 65% humidity), the plants were sprayed with an aqueous spray solution derived from the formulation of the technical active ingredient in acetone/water (50:50) solution containing 0.5% Tween 20 (polyoxyethelyene sorbitan monolaurate, CAS RN 9005-64-5). The test plants were then grown in a glasshouse under controlled conditions (at 24/16° C., day/night; 14 hours light; 65% humidity) and watered twice daily. After 13 days, the test was evaluated (5=total damage to plant; 0=no damage to plant).

Lolium perenne (LOLPE) [2] = assay: B1 pre-emergence herbicidal activity
Experimental: as §1

Avena fatua (AVEFA) [3] = assay: B1 pre-emergence herbicidal activity
Experimental: as §1

Oryza sativa (ORYSA) [4] = assay: B1 pre-emergence herbicidal activity
Experimental: as §1

[5] = test system: Echinochloa crus-galli (ECHCG); assay: B1 pre-emergence herbicidal activity
Experimental: as §1

[6] = test system: Alopecurus myosuroides (ALOMY); assay: B1 pre-emergence herbicidal activity
Experimental: as §1

[7] = test system: Triticum aestivium (TRZAW); assay: B2 post-emergence herbicidal activity
Experimental: (§2) Seeds of a variety of test species were sown in standard soil in pots: Triticum aestivium (TRZAW), Oryza sativa (ORYSA), Avena fatua (AVEFA), Alopecurus myosuroides (ALOMY), Echinochloa crus-galli (ECHCG), Lolium perenne (LOLPE). After 8 days cultivation (post-emergence) under controlled conditions in a glasshouse (at 24/16° C., day/night; 14 hours light; 65% humidity), the plants were sprayed with an aqueous spray solution derived from the formulation of the technical active ingredient in acetone/water (50:50) solution containing 0.5% Tween 20 (polyoxyethelyene sorbitan monolaurate, CAS RN 9005-64-5). The test plants were then grown in a glasshouse under controlled conditions (at 24/16° C., day/night; 14 hours light; 65% humidity) and watered twice daily. After 13 days, the test was evaluated (5=total damage to plant; 0=no damage to plant).

Lolium perenne (LOLPE) [8] = assay: B2 post-emergence herbicidal activity
Experimental: as §2

Avena fatua (AVEFA) [9] = assay: B2 post-emergence herbicidal activity
Experimental: as §2

Oryza sativa (ORYSA) [10] = assay: B2 post-emergence herbicidal activity
Experimental: as §2

[11] = test system: Echinochloa crus-galli (ECHCG); assay: B2 post-emergence herbicidal activity
Experimental: as §2

[12] = test system: Alopecurus myosuroides (ALOMY); assay: B2 post-emergence herbicidal activity
Experimental: as §2

Zea mays (ZEAMX) [13] = assay: B1a pre-emergence herbicidal activity
Experimental: as §1, with “Amaranthus retroflexus (AMARE), Setaria faberi (SETFA), Zea mays (ZEAMX), Abutilon threophrasti (ABUTH),” for “Triticum aestivium (TRZAW), Oryza sativa (ORYSA), Avena fatua (AVEFA), Alopecurus myosuroides (ALOMY),”, “plant). Results are shown below in Table 4” for “plant).”

Lolium perenne (LOLPE) [14] = assay: B1a pre-emergence herbicidal activity
Experimental: as §1, with “Amaranthus retroflexus (AMARE), Setaria faberi (SETFA), Zea mays (ZEAMX), Abutilon threophrasti (ABUTH),” for “Triticum aestivium (TRZAW), Oryza sativa (ORYSA), Avena fatua (AVEFA), Alopecurus myosuroides (ALOMY),”, “plant). Results are shown below in Table 4” for “plant).”

[15] = test system: Amaranthus retroflexus (AMARE); assay: B1a pre-emergence herbicidal activity
Experimental: as §1, with “Amaranthus retroflexus (AMARE), Setaria faberi (SETFA), Zea mays (ZEAMX), Abutilon threophrasti (ABUTH),” for “Triticum aestivium (TRZAW), Oryza sativa (ORYSA), Avena fatua (AVEFA), Alopecurus myosuroides (ALOMY),”, “plant). Results are shown below in Table 4” for “plant).”

[16] = test system: Echinochloa crus-galli (ECHCG); assay: B1a pre-emergence herbicidal activity
Experimental: as §1, with “Amaranthus retroflexus (AMARE), Setaria faberi (SETFA), Zea mays (ZEAMX), Abutilon threophrasti (ABUTH),” for “Triticum aestivium (TRZAW), Oryza sativa (ORYSA), Avena fatua (AVEFA), Alopecurus myosuroides (ALOMY),”, “plant). Results are shown below in Table 4” for “plant).”

Setaria faberi (SETFA) [17] = assay: B1a pre-emergence herbicidal activity
Experimental: as §1, with “Amaranthus retroflexus (AMARE), Setaria faberi (SETFA), Zea mays (ZEAMX), Abutilon threophrasti (ABUTH),” for “Triticum aestivium (TRZAW), Oryza sativa (ORYSA), Avena fatua (AVEFA), Alopecurus myosuroides (ALOMY),”, “plant). Results are shown below in Table 4” for “plant).”

[18] = test system: Abutilon threophrasti (ABUTH); assay: B1a pre-emergence herbicidal activity
Experimental: as §1, with “Amaranthus retroflexus (AMARE), Setaria faberi (SETFA), Zea mays (ZEAMX), Abutilon threophrasti (ABUTH),” for “Triticum aestivium (TRZAW), Oryza sativa (ORYSA), Avena fatua (AVEFA), Alopecurus myosuroides (ALOMY),”, “plant). Results are shown below in Table 4” for “plant).”

Zea mays (ZEAMX) [19] = assay: B2a post-emergence herbicidal activity
Experimental: as §2, with “Amaranthus retroflexus (AMARE), Setaria faberi (SETFA), Zea mays (ZEAMX), Abutilon threophrasti (ABUTH),” for “Triticum aestivium (TRZAW), Oryza sativa (ORYSA), Avena fatua (AVEFA), Alopecurus myosuroides (ALOMY),”, “acetone/I water” for “acetone/water”

Lolium perenne (LOLPE) [20] = assay: B2a post-emergence herbicidal activity
Experimental: as §2, with “Amaranthus retroflexus (AMARE), Setaria faberi (SETFA), Zea mays (ZEAMX), Abutilon threophrasti (ABUTH),” for “Triticum aestivium (TRZAW), Oryza sativa (ORYSA), Avena fatua (AVEFA), Alopecurus myosuroides (ALOMY),”, “acetone/I water” for “acetone/water”

[21] = test system: Amaranthus retroflexus (AMARE); assay: B2a post-emergence herbicidal activity
Experimental: as §2, with “Amaranthus retroflexus (AMARE), Setaria faberi (SETFA), Zea mays (ZEAMX), Abutilon threophrasti (ABUTH),” for “Triticum aestivium (TRZAW), Oryza sativa (ORYSA), Avena fatua (AVEFA), Alopecurus myosuroides (ALOMY),”, “acetone/I water” for “acetone/water”

[22] = test system: Echinochloa crus-galli (ECHCG); assay: B2a post-emergence herbicidal activity
Experimental: as §2, with “Amaranthus retroflexus (AMARE), Setaria faberi (SETFA), Zea mays (ZEAMX), Abutilon threophrasti (ABUTH),” for “Triticum aestivium (TRZAW), Oryza sativa (ORYSA), Avena fatua (AVEFA), Alopecurus myosuroides (ALOMY),”, “acetone/I water” for “acetone/water”

Setaria faberi (SETFA) [23] = assay: B2a post-emergence herbicidal activity
Experimental: as §2, with “Amaranthus retroflexus (AMARE), Setaria faberi (SETFA), Zea mays (ZEAMX), Abutilon threophrasti (ABUTH),” for “Triticum aestivium (TRZAW), Oryza sativa (ORYSA), Avena fatua (AVEFA), Alopecurus myosuroides (ALOMY),”, “acetone/I water” for “acetone/water”

[24] = test system: Abutilon threophrasti (ABUTH); assay: B2a post-emergence herbicidal activity
Experimental: as §2, with “Amaranthus retroflexus (AMARE), Setaria faberi (SETFA), Zea mays (ZEAMX), Abutilon threophrasti (ABUTH),” for “Triticum aestivium (TRZAW), Oryza sativa (ORYSA), Avena fatua (AVEFA), Alopecurus myosuroides (ALOMY),”, “acetone/I water” for “acetone/water”

Compound | Control of TRZAW after pre-emergence application (damage score 0-5) [1] | Control of LOLPE after pre-emergence application (damage score 0-5) (Lolium perenne (LOLPE) [2]) | Control of AVEFA after pre-emergence application (damage score 0-5) (Avena fatua (AVEFA) [3]) | Control of ORYSA after pre-emergence application (damage score 0-5) (Oryza sativa (ORYSA) [4]) | Control of ECHCG after pre-emergence application (damage score 0-5) [5] | Control of ALOMY after pre-emergence application (damage score 0-5) [6] | Control of TRZAW after post-emergence application (damage score 0-5) [7] | Control of LOLPE after post-emergence application (damage score 0-5) (Lolium perenne (LOLPE) [8]) | Control of AVEFA after post-emergence application (damage score 0-5) (Avena fatua (AVEFA) [9]) | Control of ORYSA after post-emergence application (damage score 0-5) (Oryza sativa (ORYSA) [10]) | Control of ECHCG after post-emergence application (damage score 0-5) [11] | Control of ALOMY after post-emergence application (damage score 0-5) [12] | further results
C=CCN(C(=O)OC(C)(C)C)c1cn(-c2cncc(F)c2)nc1C [Compound A54] | 0 | 0 | 0 | 0 | 0 | 0 | 0 | 1 | 1 | 0 | 1 | 1 | 
CCN(C(=O)OC(C)(C)C)c1cn(-c2cncc(F)c2)nc1C(F)(F)F [Compound A55] | 0 | 0 | 0 | 0 | 0 | 0 | 0 | 0 | 0 | 0 | 0 | 0 | 
CCN(C(=O)OC(C)(C)C)c1cn(-c2cncnc2)nc1C(F)(F)F [Compound A56] | 0 | 0 | 0 | 0 | 1 | 0 | 1 | 0 | 1 | 0 | 1 | 1 | 
CC(C)(C)OC(=O)Nc1cn(-c2cccnc2)nc1Cl [Compound A57] |  |  |  |  |  |  |  |  |  |  |  |  | Control of ZEAMX after pre-emergence application (damage score 0-5) (Zea mays (ZEAMX) [13]): 1; Control of LOLPE after pre-emergence application (damage score 0-5) (Lolium perenne (LOLPE) [14]): 0; Control of AMARE after pre-emergence application (damage score 0-5) [15]: 0; Control of ECHCG after pre-emergence application (damage score 0-5) [16]: 0; Control of SETFA after pre-emergence application (damage score 0-5) (Setaria faberi (SETFA) [17]): 0; Control of ABUTH after pre-emergence application (damage score 0-5) [18]: 0; Control of ZEAMX after post-emergence application (damage score 0-5) (Zea mays (ZEAMX) [19]): 2; Control of LOLPE after post-emergence application (damage score 0-5) (Lolium perenne (LOLPE) [20]): 1; Control of AMARE after post-emergence application (damage score 0-5) [21]: 1; Control of ECHCG after post-emergence application (damage score 0-5) [22]: 2; Control of SETFA after post-emergence application (damage score 0-5) (Setaria faberi (SETFA) [23]): 3; Control of ABUTH after post-emergence application (damage score 0-5) [24]: 1
